Patent US20240092758A1, “IMIDAZOLO INDAZOLE COMPOUNDS AS JAK INHIBITORS” (Theravance Biopharma R&D IP, LLC, priority 2021, published 2024)

Legend:
[1] = tested on: IL-13 induced STAT6 phosphorylation in BEAS-2B human lung epithelial cells; experiment: Cellular JAKI potency assay (BEAS-2B); format: cell-based; details: Homo sapiens, BEAS-2B, BEAS-2B cells, read-out: BEAS2B pIC50 (converted)
How it was run: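 AlphaLISA SureFire detection of Tyr641 pSTAT6 in lysates gave IC50s (4-parameter fit, expressed as pIC50). Cells: human BEAS-2B, exposed 1 h at 37 °C to compound dose series at 0.1% DMSO, then 30 min to IL-13 added at 80 ng/mL in HEPES-buffered HBSS with BSA.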

[2] = biological target: JAK1 (Homo sapiens (Human), UniProt P23458); experiment: Biochemical JAK kinase assay (LanthaScreen), JAK1; details: for Ki: read-out: JAK1 pKi (converted)
Chain of JAK1 (P23458 whole entry): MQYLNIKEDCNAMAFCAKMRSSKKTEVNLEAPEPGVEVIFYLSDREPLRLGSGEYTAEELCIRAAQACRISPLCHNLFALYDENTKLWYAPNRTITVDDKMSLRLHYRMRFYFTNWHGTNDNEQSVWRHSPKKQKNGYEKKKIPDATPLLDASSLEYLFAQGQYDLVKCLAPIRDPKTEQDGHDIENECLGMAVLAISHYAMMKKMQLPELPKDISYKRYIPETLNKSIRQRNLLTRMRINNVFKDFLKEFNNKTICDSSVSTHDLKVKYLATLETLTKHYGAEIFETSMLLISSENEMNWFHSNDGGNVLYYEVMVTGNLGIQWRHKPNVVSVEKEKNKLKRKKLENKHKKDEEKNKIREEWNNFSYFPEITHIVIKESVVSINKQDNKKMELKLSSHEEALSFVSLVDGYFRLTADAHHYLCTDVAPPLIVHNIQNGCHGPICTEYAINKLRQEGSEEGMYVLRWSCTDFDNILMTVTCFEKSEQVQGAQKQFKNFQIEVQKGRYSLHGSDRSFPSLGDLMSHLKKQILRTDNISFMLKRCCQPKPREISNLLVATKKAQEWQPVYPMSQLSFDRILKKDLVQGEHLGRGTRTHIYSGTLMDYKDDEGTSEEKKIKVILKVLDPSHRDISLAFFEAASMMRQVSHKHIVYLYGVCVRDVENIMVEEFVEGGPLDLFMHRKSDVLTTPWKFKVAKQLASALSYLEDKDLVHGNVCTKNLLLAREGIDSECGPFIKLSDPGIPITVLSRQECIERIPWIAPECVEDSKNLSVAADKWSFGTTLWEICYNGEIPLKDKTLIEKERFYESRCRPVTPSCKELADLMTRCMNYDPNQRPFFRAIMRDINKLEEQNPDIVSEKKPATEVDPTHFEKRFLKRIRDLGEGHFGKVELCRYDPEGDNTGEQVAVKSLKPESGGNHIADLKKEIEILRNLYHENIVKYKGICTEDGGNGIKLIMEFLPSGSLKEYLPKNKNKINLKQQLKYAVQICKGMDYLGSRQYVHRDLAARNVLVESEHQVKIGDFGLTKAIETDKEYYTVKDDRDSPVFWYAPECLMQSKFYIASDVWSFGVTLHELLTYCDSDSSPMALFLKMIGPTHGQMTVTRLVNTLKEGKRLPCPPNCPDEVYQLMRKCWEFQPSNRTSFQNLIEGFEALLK
How it was run: (§1)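 LanthaScreen format: phospho-STAT1 (pTyr701) detected with 2 nM Tb antibody after 10 mM EDTA quench. Kinase step used Km-level ATP and 200 nM STAT1 peptide, 1 h at ambient after 1 h pre-incubation. Inhibition fitted to IC50, reported as pKi.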

[3] = biological target: JAK2 (Homo sapiens (Human), UniProt O60674); experiment: Biochemical JAK kinase assay (LanthaScreen), JAK2; details: for Ki: read-out: JAK2 pKi (converted)
Chain of JAK2 (O60674 whole entry): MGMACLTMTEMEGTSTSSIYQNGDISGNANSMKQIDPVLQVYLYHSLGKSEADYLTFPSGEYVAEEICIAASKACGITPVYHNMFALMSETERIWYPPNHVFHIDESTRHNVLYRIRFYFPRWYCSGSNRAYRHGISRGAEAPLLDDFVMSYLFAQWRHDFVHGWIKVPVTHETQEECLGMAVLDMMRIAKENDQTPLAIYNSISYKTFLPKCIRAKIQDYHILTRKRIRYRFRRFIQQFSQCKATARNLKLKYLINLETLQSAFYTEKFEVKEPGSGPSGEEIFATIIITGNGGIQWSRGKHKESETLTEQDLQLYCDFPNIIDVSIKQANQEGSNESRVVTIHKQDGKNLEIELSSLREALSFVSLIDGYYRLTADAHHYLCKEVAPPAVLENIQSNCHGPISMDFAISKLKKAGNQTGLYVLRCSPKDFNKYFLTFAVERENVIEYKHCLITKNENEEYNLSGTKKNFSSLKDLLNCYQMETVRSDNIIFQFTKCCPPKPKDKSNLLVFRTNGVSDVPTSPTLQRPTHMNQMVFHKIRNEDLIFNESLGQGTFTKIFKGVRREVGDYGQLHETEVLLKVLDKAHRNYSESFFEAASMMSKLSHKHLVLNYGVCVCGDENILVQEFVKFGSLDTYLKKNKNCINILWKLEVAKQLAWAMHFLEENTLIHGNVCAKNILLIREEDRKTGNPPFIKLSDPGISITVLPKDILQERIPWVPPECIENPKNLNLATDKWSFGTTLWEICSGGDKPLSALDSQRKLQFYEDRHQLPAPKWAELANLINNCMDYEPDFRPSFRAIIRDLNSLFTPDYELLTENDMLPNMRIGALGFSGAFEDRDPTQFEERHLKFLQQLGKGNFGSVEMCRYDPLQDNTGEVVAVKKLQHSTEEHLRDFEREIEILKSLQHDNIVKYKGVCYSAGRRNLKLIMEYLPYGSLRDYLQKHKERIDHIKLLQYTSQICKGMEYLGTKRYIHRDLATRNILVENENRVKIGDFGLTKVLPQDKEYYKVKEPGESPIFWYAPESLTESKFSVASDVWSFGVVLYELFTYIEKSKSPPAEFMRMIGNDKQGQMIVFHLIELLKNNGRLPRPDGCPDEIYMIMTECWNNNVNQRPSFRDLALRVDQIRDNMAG
How it was run: as §1

Row | Structure (SMILES) | IC50 [1] [nM] | Ki [2] [nM] | Ki [3] [nM] | JAK1 pKi [2] | JAK2 pKi [3]
1 | CCc1cc(O)ccc1-c1ccc2c(-c3nc(C4=CCN(CCc5ccccc5)C4)c[nH]3)n[nH]c2c1 [Example 141] | 100 to 316 | 0.1 to 1 | 0.1 to 1 |  | 
2 | CCc1cc(O)ccc1-c1ccc2c(-c3nc(C4=CCN(Cc5cnc[nH]5)C4)c[nH]3)n[nH]c2c1 [Example 142] | 10 to 31.6 |  |  | A (A represents a pKi value ≥10 (Ki≤0.1 nM)) | A (A represents a pKi value ≥10 (Ki≤0.1 nM))
3 | CCc1cc(O)ccc1-c1ccc2c(-c3nc(C4=CCN(Cc5ccn[nH]5)C4)c[nH]3)n[nH]c2c1 [Example 143] | 10 to 31.6 |  |  | A (A represents a pKi value ≥10 (Ki≤0.1 nM)) | A (A represents a pKi value ≥10 (Ki≤0.1 nM))
4 | CCc1cc(O)ccc1-c1ccc2c(-c3nc(C4=CCN(Cc5c[nH]nn5)C4)c[nH]3)n[nH]c2c1 [Example 144] | 10 to 31.6 |  |  | A (A represents a pKi value ≥10 (Ki≤0.1 nM)) | A (A represents a pKi value ≥10 (Ki≤0.1 nM))
5 | CCc1cc(O)ccc1-c1ccc2c(-c3nc(C4=CCN(Cc5cn[nH]c5)C4)c[nH]3)n[nH]c2c1F [Example 145] | 10 to 31.6 |  |  | A (A represents a pKi value ≥10 (Ki≤0.1 nM)) | A (A represents a pKi value ≥10 (Ki≤0.1 nM))
6 | CCc1cc(O)ccc1-c1ccc2c(-c3nc(C4=CCN(Cc5c[nH]nn5)C4)c[nH]3)n[nH]c2c1F [Example 146] | 10 to 31.6 | 0.1 to 1 | 0.1 to 1 |  | 
7 | CCc1cc(O)ccc1-c1ccc2c(-c3nc(C4=CCN(C(C)=O)CC4)c[nH]3)n[nH]c2c1 [Example 147] | 10 to 31.6 | 0.1 to 1 | 0.1 to 1 |  | 
8 | CCc1cc(O)ccc1-c1ccc2c(-c3nc(C4=CCN(S(C)(=O)=O)CC4)c[nH]3)n[nH]c2c1 [Example 148] | 10 to 31.6 | 0.1 to 1 | 0.1 to 1 |  | 
9 | CCc1cc(O)ccc1-c1ccc2c(-c3nc(C4=CCN(C(=O)OC)CC4)c[nH]3)n[nH]c2c1 [Example 149] | 31.6 to 100 | 1 to 10 | 1 to 10 |  | 
10 | CCc1cc(O)ccc1-c1ccc2c(-c3nc(C4=CCN(C(=O)NC)CC4)c[nH]3)n[nH]c2c1 [Example 150] | 10 to 31.6 | 0.1 to 1 | 0.1 to 1 |  | 
11 | CCc1cc(O)ccc1-c1ccc2c(-c3nc(C4=CCN(C(=O)c5ccccc5)CC4)c[nH]3)n[nH]c2c1 [Example 151] | 31.6 to 100 | 1 to 10 | 1 to 10 |  | 
12 | CCc1cc(O)ccc1-c1ccc2c(-c3nc(C4=CCN(C(C)=O)CC4)c[nH]3)n[nH]c2c1F [Example 154] | 10 to 31.6 | 0.1 to 1 | 0.1 to 1 |  | 
13 | CCc1cc(O)ccc1-c1ccc2c(-c3nc(C4=CCN(S(C)(=O)=O)CC4)c[nH]3)n[nH]c2c1F [Example 155] | 10 to 31.6 | 1 to 10 | 0.1 to 1 |  | 
14 | CCc1cc(O)ccc1-c1ccc2c(-c3nc(C4=CCN(C(=O)OC)CC4)c[nH]3)n[nH]c2c1F [Example 156] | 31.6 to 100 | 1 to 10 | 0.1 to 1 |  | 
15 | CCc1cc(O)ccc1-c1ccc2c(-c3nc(C4=CCCN(C(C)=O)C4)c[nH]3)n[nH]c2c1 [Example 159] | 10 to 31.6 | 0.1 to 1 | 0.1 to 1 |  | 
16 | CCc1cc(O)ccc1-c1ccc2c(-c3nc(C4=CCCN(S(C)(=O)=O)C4)c[nH]3)n[nH]c2c1 [Example 160] | 10 to 31.6 | 0.1 to 1 | 0.1 to 1 |  | 
17 | CCc1cc(O)ccc1-c1ccc2c(-c3nc(C4=CCCN(C(=O)OC)C4)c[nH]3)n[nH]c2c1 [Example 161] | 31.6 to 100 | 0.1 to 1 | 1 to 10 |  | 
18 | CCc1cc(O)ccc1-c1ccc2c(-c3nc(C4=CCCN(C(=O)NC)C4)c[nH]3)n[nH]c2c1 [Example 162] | 31.6 to 100 | 0.1 to 1 | 0.1 to 1 |  | 
19 | CCc1cc(O)ccc1-c1ccc2c(-c3nc(C4=CCCN(C(=O)c5ccccc5)C4)c[nH]3)n[nH]c2c1 [Example 163] | 31.6 to 100 | 1 to 10 | 1 to 10 |  | 
